Laboratory results published in patent US7601852B2, “Macrocyclic kinase inhibitors” (Kosan Biosciences Incorporated, priority 2006, dated 2009).
Read-outs that look alike come from different tables or passages of the source.

Tests used:
[1] = tested on: HT29 (B-Raf V600E) human colon cancer cell line; assay: Inhibitory concentration against HT29 cancer cell line; assay type: cell-based
Source text: (§1) The biological activity of compounds III and IV is compared against that of the natural product hypothemycin in Table A. Inhibitory concentrations against three cancer cell lines is provided. COLO829 B is a human melanoma cancer cell line having a B-Raf V600E mutation. HT29 is a human colon cancer cell line also having a B-Raf V600E mutation. SKOV3 is a human […] cancer cell line having wild-type B-Raf. Additionally, Ki and Kinact for ERK2 are provided.

ERK2 = ERK2 (Homo sapiens, UniProt P28482); assay: ERK2 Binding; conditions: for kinact: read-out: ERK2 Binding Kinact
Chain of ERK2 (P28482 whole entry, species assumed): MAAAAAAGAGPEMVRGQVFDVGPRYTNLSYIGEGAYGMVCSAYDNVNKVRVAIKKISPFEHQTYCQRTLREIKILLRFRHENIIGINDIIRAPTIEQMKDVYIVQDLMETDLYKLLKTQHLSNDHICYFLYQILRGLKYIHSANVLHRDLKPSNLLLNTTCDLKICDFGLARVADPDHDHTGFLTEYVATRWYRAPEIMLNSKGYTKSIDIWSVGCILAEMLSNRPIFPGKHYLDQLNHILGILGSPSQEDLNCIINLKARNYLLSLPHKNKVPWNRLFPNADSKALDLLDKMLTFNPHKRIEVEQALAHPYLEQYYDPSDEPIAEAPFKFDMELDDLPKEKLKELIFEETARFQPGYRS
Source text: as §1

[2] = tested on: COLO829 (B-Raf V600E) human melanoma cancer cell line; assay: Inhibitory concentration against COLO829 cancer cell line; assay type: cell-based
Source text: as §1

[3] = tested on: SKOV3 (wild-type B-Raf) human breast cancer cell line; assay: Inhibitory concentration against SKOV3 cancer cell line; assay type: cell-based
Source text: as §1

panel of 124 kinases = conditions: cited from earlier work
[4] = HT-29, HT29 human colon cancer cell line, B-Raf V600E, read-out: Inhibitory Concentration (IC50) HT29 (B-Raf V600E)
[5] = COLO-829, COLO829 human melanoma cell line, B-Raf V600E, read-out: Inhibitory Concentration (IC50) COLO829 (B-Raf V600E)
[6] = SK-OV-3, SKOV3 cell line, wild-type B-Raf, read-out: Inhibitory Concentration (IC50) SKOV3 (wild-type B-Raf)

| IC50 [1, 4] | Ki (ERK2; read-out: ERK2 Binding Ki) | IC50 [2, 5] | IC50 [3, 6] | SMILES | kinact (ERK2) | number of kinases without active site cysteine inhibited (panel of 124 kinases; of 105 kinases not having the active site cysteine) | number of active site cysteine kinases inhibited (panel of 124 kinases; of the 19 kinases having the active site cysteine) | number of kinases inhibited (panel of 124 kinases; of the whole panel of 124 kinases) | IC50 ([1]; Homo sapiens, HT-29, read-out: Inhibitory Concentration (IC50) HT29 (B-Raf V600E)) | Ki (ERK2) | IC50 ([2]; Homo sapiens, COLO-829, read-out: Inhibitory Concentration (IC50) COLO829 (B-Raf V600E)) | IC50 ([3]; SK-OV-3, read-out: Inhibitory Concentration (IC50) SKOV3 (wild-type B-Raf)) |
| --- | --- | --- | --- | --- | --- | --- | --- | --- | --- | --- | --- | --- |
| 0.86 µM | 3.1 ± 0.4 µM | 0.36 µM | 74 µM | C[C@H]1C/C=C\C(=O)[C@@H](O)[C@@H](O)COCc2cc(O)cc(O)c2C(=O)O1 [Compound III] | 9.1e-05 s⁻¹ | – | – | – | – | – | – | – |
| – | – | – | – | COc1cc(O)c2c(c1)[C@H]1O[C@@H]1C[C@H](O)[C@H](O)C(=O)/C=C\C[C@H](C)OC2=O [Hypothemycin, hypothemycin] | 0.005 ± 2e-06 s⁻¹ | 2 | 18 | 20 | 0.26 µM | 2.7 ± 0.8 µM | 0.046 µM | 4 µM |
| 1.42 µM | – | 0.31 µM | > 100 µM | C[C@@H]1/C=C\C(=O)[C@@H](O)[C@@H](O)COCc2cc(O)cc(O)c2C(=O)O[C@H]1C [IV] | – | – | – | – | – | – | – | – |
